Values of other authors, collected in patent US20090254175A1, “Valved stent for chronic venous insufficiency” (priority 2008, published 2009).

Row | solubility in acetic acid | solubility in acetone and glacial acetic acid (acetone and glacial acetic acid, compared with alcohol) | solubility in alcohol | solubility in water (water) | Compound
1 | soluble | to a lesser extent | soluble | sparingly soluble | C[C@H](CCC(=O)O)[C@H]1CC[C@H]2[C@@H]3CC[C@@H]4C[C@H](O)CC[C@]4(C)[C@H]3C[C@H](O)[C@]12C [Deoxycholic acid]
2 | soluble |  | soluble |  | C[C@H](CCC(=O)O)[C@H]1CC[C@H]2[C@@H]3[C@@H](O)C[C@@H]4C[C@H](O)CC[C@]4(C)[C@H]3CC[C@]12C [ursodeoxycholic acid, reference compound]
